Assay results: PMC8550792, “Evolution of kinase polypharmacology across HSP90 drug discovery” (Cell Chemical Biology, 2021)

Key:
Assay in all cases: biochemical
Format in all cases: biochemical
[1] = biological target: T1, 382 unique human kinases (Homo sapiens, UniProt Q13153); conditions: PAK1, 10 uM; for remaining activity at 10 µM: read-out: % Enzyme Activity (relative to DMSO controls)
T1 construct: purchased Reaction Biology (HotSpot contract assay)

[2] = biological target: T2, 382 unique human kinases (Homo sapiens, UniProt P45985); conditions: MKK4, [ATP] 2.5 µM, compound 10 uM; for remaining activity at 10 µM: read-out: % Enzyme Activity (relative to DMSO controls)
T2 construct: purchased Reaction Biology (HotSpot contract assay)
T2 sequence (P45985 1-399): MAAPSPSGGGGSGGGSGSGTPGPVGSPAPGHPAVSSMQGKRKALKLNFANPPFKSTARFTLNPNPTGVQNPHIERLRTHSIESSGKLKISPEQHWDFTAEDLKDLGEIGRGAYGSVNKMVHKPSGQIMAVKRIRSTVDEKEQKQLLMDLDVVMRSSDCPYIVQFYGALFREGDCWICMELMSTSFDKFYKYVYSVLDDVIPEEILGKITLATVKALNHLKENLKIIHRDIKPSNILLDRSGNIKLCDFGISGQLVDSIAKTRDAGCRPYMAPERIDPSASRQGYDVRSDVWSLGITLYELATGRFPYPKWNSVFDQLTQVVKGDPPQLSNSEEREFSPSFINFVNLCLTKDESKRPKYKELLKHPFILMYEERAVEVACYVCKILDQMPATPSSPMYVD

[3] = biological target: T3, 382 unique human kinases (Homo sapiens, UniProt P35916); conditions: FLT4/VEGFR3, [ATP] 5 µM, compound 10 uM; for remaining activity at 10 µM: read-out: % Enzyme Activity (relative to DMSO controls)
T3 construct: purchased Reaction Biology (HotSpot contract assay)
T3 sequence (P35916 25-1363): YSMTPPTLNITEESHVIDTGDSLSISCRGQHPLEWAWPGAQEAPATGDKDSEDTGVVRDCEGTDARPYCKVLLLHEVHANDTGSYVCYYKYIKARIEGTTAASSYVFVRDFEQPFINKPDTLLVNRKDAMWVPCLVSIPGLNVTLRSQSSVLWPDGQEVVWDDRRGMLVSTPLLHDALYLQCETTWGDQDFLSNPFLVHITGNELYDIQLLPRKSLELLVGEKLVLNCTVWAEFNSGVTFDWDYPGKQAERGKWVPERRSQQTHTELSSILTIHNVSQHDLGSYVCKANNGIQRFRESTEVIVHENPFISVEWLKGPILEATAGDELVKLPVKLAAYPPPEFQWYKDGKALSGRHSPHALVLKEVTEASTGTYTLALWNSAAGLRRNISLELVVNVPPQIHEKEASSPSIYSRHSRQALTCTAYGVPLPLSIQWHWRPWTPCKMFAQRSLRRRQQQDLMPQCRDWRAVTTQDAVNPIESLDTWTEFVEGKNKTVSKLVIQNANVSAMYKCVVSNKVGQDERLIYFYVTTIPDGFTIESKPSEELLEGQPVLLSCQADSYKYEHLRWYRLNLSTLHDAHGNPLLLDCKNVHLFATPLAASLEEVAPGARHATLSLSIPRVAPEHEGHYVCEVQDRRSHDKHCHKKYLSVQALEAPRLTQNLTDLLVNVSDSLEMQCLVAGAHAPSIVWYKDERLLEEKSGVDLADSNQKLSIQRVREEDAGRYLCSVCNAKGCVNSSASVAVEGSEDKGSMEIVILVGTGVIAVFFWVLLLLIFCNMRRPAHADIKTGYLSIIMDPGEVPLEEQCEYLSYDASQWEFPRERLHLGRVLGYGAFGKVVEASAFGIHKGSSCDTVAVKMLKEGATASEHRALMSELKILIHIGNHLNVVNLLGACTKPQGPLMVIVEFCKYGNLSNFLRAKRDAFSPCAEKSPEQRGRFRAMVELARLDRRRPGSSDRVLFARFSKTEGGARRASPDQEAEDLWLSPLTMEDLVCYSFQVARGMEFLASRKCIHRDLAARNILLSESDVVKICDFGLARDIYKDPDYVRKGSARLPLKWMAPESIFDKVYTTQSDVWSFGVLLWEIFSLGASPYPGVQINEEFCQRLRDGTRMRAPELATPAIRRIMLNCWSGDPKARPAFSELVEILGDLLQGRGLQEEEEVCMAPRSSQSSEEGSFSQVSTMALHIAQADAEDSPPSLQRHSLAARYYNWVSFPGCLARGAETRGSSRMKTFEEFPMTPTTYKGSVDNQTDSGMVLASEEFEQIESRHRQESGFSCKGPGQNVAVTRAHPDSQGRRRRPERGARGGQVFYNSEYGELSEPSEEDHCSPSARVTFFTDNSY

[4] = biological target: T4, 382 unique human kinases (Homo sapiens, UniProt P22455, V550E); conditions: FGFR4 (V550E), 10 uM; for remaining activity at 10 µM: read-out: % Enzyme Activity (relative to DMSO controls)
T4 construct: purchased Reaction Biology (HotSpot contract assay)
T4 sequence (P22455 22-802 V550E): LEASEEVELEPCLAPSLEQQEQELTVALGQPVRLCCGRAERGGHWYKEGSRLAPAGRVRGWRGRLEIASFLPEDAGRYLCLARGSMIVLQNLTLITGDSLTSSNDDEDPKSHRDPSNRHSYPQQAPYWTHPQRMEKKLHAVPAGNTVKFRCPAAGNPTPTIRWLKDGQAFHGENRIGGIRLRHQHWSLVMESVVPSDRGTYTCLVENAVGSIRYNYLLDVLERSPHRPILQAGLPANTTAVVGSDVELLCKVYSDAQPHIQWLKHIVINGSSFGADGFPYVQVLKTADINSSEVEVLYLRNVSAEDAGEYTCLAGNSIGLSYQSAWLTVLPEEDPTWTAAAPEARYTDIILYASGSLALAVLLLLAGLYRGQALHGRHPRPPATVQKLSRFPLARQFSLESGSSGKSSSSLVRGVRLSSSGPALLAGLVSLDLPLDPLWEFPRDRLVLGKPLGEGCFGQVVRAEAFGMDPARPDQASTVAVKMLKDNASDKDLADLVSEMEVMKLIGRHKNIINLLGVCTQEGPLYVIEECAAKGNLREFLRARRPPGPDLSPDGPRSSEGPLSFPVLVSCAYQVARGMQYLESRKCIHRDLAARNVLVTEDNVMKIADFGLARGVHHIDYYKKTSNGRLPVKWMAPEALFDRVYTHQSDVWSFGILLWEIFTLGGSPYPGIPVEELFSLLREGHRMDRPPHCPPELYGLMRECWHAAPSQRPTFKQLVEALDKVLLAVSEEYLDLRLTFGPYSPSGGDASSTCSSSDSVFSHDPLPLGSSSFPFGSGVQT

[5] = biological target: T5, 382 unique human kinases (Homo sapiens, UniProt P29322); conditions: kinase EPHA8, compound 10 uM; for remaining activity at 10 µM: read-out: % Enzyme Activity (relative to DMSO controls)
T5 construct: purchased Reaction Biology (HotSpot contract assay)
T5 sequence (P29322 28-1005): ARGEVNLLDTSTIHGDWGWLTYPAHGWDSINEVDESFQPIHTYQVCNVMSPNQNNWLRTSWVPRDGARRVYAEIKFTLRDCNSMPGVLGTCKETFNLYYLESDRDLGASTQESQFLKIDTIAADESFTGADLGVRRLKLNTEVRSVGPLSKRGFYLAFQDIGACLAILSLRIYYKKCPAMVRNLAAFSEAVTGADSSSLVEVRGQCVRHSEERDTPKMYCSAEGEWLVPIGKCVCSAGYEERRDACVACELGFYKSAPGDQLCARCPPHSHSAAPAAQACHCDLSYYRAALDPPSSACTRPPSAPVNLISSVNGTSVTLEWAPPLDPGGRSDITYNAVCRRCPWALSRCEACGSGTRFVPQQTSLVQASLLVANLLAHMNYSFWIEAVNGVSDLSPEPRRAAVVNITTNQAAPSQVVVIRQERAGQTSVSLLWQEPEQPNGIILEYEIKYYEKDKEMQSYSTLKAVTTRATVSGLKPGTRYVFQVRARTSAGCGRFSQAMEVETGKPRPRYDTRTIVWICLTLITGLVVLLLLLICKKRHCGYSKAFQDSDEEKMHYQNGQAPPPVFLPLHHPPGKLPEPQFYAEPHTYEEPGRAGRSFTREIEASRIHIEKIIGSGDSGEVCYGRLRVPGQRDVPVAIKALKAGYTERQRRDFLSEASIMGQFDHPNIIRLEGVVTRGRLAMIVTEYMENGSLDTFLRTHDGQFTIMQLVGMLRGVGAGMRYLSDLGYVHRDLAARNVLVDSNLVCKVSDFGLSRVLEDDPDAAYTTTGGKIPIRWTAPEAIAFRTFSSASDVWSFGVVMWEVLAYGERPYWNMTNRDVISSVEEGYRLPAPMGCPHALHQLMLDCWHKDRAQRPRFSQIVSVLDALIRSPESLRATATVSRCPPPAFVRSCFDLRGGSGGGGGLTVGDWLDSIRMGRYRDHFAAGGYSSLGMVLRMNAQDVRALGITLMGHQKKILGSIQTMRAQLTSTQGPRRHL

[6] = biological target: T6, 382 unique human kinases (Homo sapiens, UniProt Q8TDX7); conditions: NEK7, compound at 10 uM, duplicate values; for remaining activity at 10 µM: read-out: % Enzyme Activity (relative to DMSO controls)
T6 construct: purchased Reaction Biology (HotSpot contract assay)
T6 sequence (Q8TDX7 whole entry): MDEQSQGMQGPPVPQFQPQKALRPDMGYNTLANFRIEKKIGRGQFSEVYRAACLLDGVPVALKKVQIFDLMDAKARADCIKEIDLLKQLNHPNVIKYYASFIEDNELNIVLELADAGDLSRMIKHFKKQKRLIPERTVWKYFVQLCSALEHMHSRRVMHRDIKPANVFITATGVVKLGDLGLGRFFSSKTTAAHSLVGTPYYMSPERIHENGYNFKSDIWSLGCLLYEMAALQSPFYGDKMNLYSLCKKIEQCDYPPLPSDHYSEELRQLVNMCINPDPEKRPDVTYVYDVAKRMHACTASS

[7] = biological target: T7, 382 unique human kinases (Homo sapiens, UniProt Q12851); conditions: GCK/MAP4K2, 10 uM; for remaining activity at 10 µM: read-out: % Enzyme Activity (relative to DMSO controls)
T7 construct: purchased Reaction Biology (HotSpot contract assay)
T7 sequence (Q12851 1-820): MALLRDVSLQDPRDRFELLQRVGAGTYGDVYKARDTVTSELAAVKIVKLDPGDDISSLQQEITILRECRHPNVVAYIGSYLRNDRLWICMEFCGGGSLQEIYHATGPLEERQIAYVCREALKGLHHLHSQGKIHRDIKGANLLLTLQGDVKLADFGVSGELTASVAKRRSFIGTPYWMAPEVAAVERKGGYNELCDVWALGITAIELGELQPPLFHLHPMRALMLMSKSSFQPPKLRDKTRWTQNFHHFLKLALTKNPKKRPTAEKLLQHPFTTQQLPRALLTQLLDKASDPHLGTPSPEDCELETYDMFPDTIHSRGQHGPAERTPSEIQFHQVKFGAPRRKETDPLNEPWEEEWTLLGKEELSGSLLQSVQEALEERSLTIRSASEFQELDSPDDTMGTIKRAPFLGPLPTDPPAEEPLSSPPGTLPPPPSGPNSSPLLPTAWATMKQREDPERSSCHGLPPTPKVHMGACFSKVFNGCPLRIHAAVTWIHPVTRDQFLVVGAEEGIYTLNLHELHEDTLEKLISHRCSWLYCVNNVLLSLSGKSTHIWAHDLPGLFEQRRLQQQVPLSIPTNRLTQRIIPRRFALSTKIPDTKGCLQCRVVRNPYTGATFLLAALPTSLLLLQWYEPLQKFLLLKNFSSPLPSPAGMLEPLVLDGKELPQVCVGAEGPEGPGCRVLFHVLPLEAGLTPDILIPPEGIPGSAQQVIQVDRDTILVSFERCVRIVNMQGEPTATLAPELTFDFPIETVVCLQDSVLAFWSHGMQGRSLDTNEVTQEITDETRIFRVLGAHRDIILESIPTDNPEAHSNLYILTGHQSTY

[8] = biological target: T8, 382 unique human kinases (Homo sapiens, UniProt Q02763, Y1108F); conditions: kinase TIE2 (Y1108F), compound 10 uM; for remaining activity at 10 µM: read-out: % Enzyme Activity (relative to DMSO controls)
T8 construct: purchased Reaction Biology (HotSpot contract assay)
T8 sequence (Q02763 23-1124 Y1108F): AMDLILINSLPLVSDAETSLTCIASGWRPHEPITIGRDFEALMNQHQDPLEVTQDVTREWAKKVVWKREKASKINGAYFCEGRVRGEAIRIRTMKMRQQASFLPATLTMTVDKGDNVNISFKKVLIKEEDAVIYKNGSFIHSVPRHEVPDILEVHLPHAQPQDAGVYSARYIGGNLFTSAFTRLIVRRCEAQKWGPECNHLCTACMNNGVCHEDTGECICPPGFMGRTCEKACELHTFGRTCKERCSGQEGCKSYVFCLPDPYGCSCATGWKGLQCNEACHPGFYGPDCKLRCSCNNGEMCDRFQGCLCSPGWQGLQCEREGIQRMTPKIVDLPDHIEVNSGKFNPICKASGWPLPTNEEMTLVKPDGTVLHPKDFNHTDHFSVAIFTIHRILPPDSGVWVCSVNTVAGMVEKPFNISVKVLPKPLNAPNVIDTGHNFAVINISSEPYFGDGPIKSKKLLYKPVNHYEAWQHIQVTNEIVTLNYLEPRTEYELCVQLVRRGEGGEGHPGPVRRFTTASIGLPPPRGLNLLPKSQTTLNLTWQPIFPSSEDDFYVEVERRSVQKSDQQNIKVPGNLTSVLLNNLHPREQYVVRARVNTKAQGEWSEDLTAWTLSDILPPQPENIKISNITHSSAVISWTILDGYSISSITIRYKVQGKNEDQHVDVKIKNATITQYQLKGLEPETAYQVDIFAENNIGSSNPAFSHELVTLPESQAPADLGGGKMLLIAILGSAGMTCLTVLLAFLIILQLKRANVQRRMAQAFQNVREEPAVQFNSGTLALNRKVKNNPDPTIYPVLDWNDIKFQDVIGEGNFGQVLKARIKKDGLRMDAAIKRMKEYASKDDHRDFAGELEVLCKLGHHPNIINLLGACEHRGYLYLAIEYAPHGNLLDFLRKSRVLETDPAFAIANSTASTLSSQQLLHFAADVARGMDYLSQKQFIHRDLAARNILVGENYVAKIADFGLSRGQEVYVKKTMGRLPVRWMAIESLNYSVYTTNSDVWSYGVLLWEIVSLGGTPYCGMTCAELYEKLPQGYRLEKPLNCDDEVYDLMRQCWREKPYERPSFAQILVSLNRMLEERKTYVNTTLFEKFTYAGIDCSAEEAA

T1 sequence (Q13153 whole entry): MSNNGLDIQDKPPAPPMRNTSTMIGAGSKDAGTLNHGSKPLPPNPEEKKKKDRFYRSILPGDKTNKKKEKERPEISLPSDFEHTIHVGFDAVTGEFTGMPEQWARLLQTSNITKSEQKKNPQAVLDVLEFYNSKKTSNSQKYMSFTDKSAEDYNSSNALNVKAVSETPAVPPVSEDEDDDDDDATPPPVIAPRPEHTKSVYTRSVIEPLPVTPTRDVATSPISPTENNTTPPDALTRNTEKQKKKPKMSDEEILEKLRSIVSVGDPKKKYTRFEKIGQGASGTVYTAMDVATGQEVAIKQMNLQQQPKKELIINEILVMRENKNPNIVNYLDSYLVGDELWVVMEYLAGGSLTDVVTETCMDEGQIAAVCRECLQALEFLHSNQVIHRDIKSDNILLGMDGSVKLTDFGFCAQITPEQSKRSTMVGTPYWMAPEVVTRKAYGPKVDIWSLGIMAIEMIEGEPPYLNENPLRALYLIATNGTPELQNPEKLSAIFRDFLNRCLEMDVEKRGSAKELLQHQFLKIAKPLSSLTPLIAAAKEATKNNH

| Structure (SMILES) | % Enzyme Activity (relative to DMSO controls) [1] | remaining activity at 10 µM [1] | % Enzyme Activity (relative to DMSO controls) [2] | remaining activity at 10 µM [2] | % Enzyme Activity (relative to DMSO controls) [3] | remaining activity at 10 µM [3] | % Enzyme Activity (relative to DMSO controls) [4] | remaining activity at 10 µM [4] | remaining activity at 10 µM [5] | remaining activity at 10 µM [6] | remaining activity at 10 µM [7] | remaining activity at 10 µM [8] | % Enzyme Activity (relative to DMSO controls) [5] | % Enzyme Activity (relative to DMSO controls) [6] | % Enzyme Activity (relative to DMSO controls) [7] | % Enzyme Activity (relative to DMSO controls) [8] |
| --- | --- | --- | --- | --- | --- | --- | --- | --- | --- | --- | --- | --- | --- | --- | --- | --- |
| CCNC(=O)c1noc(-c2cc(C(C)C)c(O)cc2O)c1-c1ccc(CN2CCOCC2)cc1 [Luminespib] | 101.44% | 102% | 93.71% | 98.4% | 95.96% | 96% | 100.42% | 101% |  |  |  |  |  |  |  |  |
| CC(C)c1cc(-c2n[nH]c(=O)n2-c2ccc3c(ccn3C)c2)c(O)cc1O [Ganetespib (STA9090)] |  |  |  |  |  |  |  |  | 95.2% | 113% | 76% | 90% |  |  |  |  |
| CCNC(=O)c1noc(-c2cc(C(C)C)c(O)cc2O)c1-c1ccc(CN2CCOCC2)cc1 [Luminespib (AUY-922)] |  |  |  |  |  |  |  |  | 94.1% | 116% | 97.2% | 110% | 92.42% | 116.20% | 94.14% | 108.40% |
| CC(C)c1cc(-c2n[nH]c(=O)n2-c2ccc3c(ccn3C)c2)c(O)cc1O [Ganetespib] |  | 97.2% |  | 55.2% |  | 47.4% |  | 96.9% |  |  |  |  |  |  |  |  |
